Laboratory results taken from patent publication US12527869B2, “Stable microspheres, method off abrication and use thereof” (B. G. NEGEV TECHNOLOGIES AND APPLICATIONS LTD., AT …, priority 2018, dated 2026).
Converted amounts (≈) assume the structure as drawn.

Experiments:
[1] = cited from earlier work
[2] = cited from earlier work; for Ostwald coefficient (×10^6): gas solubility
[3] = In vitro cavitation measurement by passive cavitation detection (PCD); conditions: C3F8; 499 KPa; about 6×10^7 MBs or 350 μl free gas
Procedure: Lyophilized microbubbles prepared as described in Example 1 herein were weighed and inserted into a headspace vial, and the vial was sealed by a screw cap with 1.3 mm silicone septum. Empty 50 ml syringe, 10 ml syringe filled with the desired gas and a 27 G needle, were connected to a 3 ways stopcock. The air inside the vail was drawn using the 50 ml syringe to form a vacuum, then the desired gas in the 10 ml syringe was injected into the vial. The MBs were dispersed with the desired volume (3 ml-7 ml) of degassed water, which was injected with an additional syringe and needle (23 G) through the septum cap, to prevent gas leakage. […]
Acoustic absorbing material (E in FIG. 8) was located at the top of the chamber to prevent ultrasound reflection, and a receiver (hydrophone manufactured by InSightec) was placed at an angle of […] to the direction of wave propagation (F in FIG. 8). […] These variations were recorded by the same digital pico-oscilloscope, and the data was analyzed using MATLAB software. […]
Between measurements, it was necessary to degas the water in the system to ensure that the measured cavitation was caused by the activity of microbubbles examined in the specific experiment, and not as a result of existing gas bubbles in water, or microbubbles from a previous experiment, which remained in the system. […]
The data were analyzed using MATLAB software. […]

In the case of `CCOC(C)=O` [ethyl acetate], the water solubility [1] is given as 90 mg/mL.
For `FC(F)(F)C(F)(F)C(F)(F)C(F)(F)F` [Synthesis C4F10, perfluorobutane], the “Ostwald coefficient (×10^6)” value [2] is listed as 202 ×10^6 and the “Diffusivity coefficient in water” value [2] is listed as 6.9 m^2s^−1 (×10^10).
In the case of `FC(F)(F)C(F)(F)C(F)(F)F` [Synthesis C3F8, perfluoropropane], the “cavitation dose (CD) by inner core structure, compared with hollow single-core microbubbles” value [3] is listed as “very low”, the “Ostwald coefficient (×10^6)” value [2] is listed as 520 ×10^6 and the “Diffusivity coefficient in water” value [2] is listed as 7.45 m^2s^−1 (×10^10).
For `FS(F)(F)(F)(F)F` [SF6, sulfur hexafluoride], the “Ostwald coefficient (×10^6)” value [2] is listed as 5400 ×10^6 and the “Diffusivity coefficient in water” value [2] is listed as 12 m^2s^−1 (×10^10).
In the case of `ClCCl` [DCM, dichloromethane], the water solubility [1] is listed as 20 mg/mL (≈ 235 mM).
